Measurements taken from ChEMBL document CHEMBL1130770, “Solid phase synthesis of benzylamine-derived sulfonamide library” (Bioorg Med Chem Lett, 1998).

molecular target: Prothrombin (Homo sapiens, UniProt P00734); test: Inhibition constant was evaluated for inhibitory activity against the blood coagulant thrombin

SMILES | Ki [nM]
CC(C)N(C)C(=O)[C@H](Cc1ccc(CN)cc1)NS(=O)(=O)c1ccc2ccccc2c1 | 600
CC(C)NC(=O)[C@H](Cc1ccc(CN)cc1)NS(=O)(=O)c1ccc2ccccc2c1 | 31700
CN(C(=O)[C@H](Cc1ccc(CN)cc1)NS(=O)(=O)c1ccc2ccccc2c1)C1CCCC1 | 50
NCc1ccc(C[C@H](NS(=O)(=O)c2ccc3ccccc3c2)C(=O)NCc2ccccc2)cc1 | 97200

The remaining lines, values ahead:

Ki [nM] | SMILES
3060 | CN(C)C(=O)[C@H](Cc1ccc(CN)cc1)NS(=O)(=O)c1ccc2ccccc2c1
200 | NCc1ccc(C[C@H](NS(=O)(=O)c2ccc3ccccc3c2)C(=O)N2CCCC2)cc1
15600 | NCc1ccc(C[C@H](NS(=O)(=O)c2ccc3ccccc3c2)C(=O)N2CCC(O)CC2)cc1
10 | CCCc1ccc(S(=O)(=O)N[C@@H](Cc2ccc(CN)cc2)C(=O)N(C)C2CCCC2)cc1
